The record followed here is patent US10899709B2, “Novel-alkynyl-substituted 3-phenylpyrrolidine-2,4-diones and use thereof as herbicides” (BAYER CROPSCIENCE AKTIENGESELLSCHAFT, priority 2015, dated 2021).

Format in all cases: in vivo
One experiment deals with Cyperus esculentus. Description: Pre-emergence herbicidal effect. The note with it: for Pre-emergence effectiveness CYPES: 320 g/ha, visual score after 3 weeks. The text has this:
(§1) Seeds of monocotyledonous and dicotyledonous weed plants and crop plants are laid out in wood-fibre pots in sandy loam and covered with soil. The compounds according to the invention formulated in the form of wettable powders (WP) or as emulsion concentrates (EC) are then applied as aqueous suspension or emulsion at a water application rate of 600 to 800 l/ha (converted) with the addition of 0.2% wetting agent to the surface of the covering soil. After the treatment, the pots are placed in a greenhouse and kept under good growth conditions for the trial plants. The damage to the test plants is scored visually after a test period of 3 weeks by comparison with untreated controls (herbicidal activity in percent (%): 100% activity=the plants have died, 0% activity=like control plants).

Experiment [1] relates to Setaria viridis. In words: Pre-emergence herbicidal effect. The following applies: for Pre-emergence effectiveness SETVI: visual score after 3 weeks.
Description: as §1

Experiment [2] deals with Avena fatua. In words: Pre-emergence herbicidal effect. The note with it: for Pre-emergence effectiveness AVEFA: visual score after 3 weeks.
Description: as §1

In experiment [3] the test system is Echinochloa crus-galli. Description: Pre-emergence herbicidal effect. The following applies: visual score after 3 weeks.
Description: as §1

The subject of experiment [4] is Lolium multiflorum. Description: Pre-emergence herbicidal effect. The following applies: visual score after 3 weeks.
Description: as §1

The test system of experiment [5] is Alopecurus myosuroides. Description: Pre-emergence herbicidal effect. The following applies: visual score after 3 weeks.
Description: as §1

Experiment [6] deals with Echinochloa crus-galli. Description: Post-emergence herbicidal effect. The following applies: visual assessment after about 3 weeks. The procedure:
(§2) Seeds of monocotyledonous and dicotyledonous weed and crop plants are laid out in sandy loam in wood-fibre pots, covered with soil and cultivated in a greenhouse under good growth conditions. 2 to 3 weeks after sowing, the test plants are treated at the one-leaf stage. The compounds according to the invention, formulated in the form of wettable powders (WP) or as emulsion concentrates (EC), are then sprayed as aqueous suspension or emulsion at a water application rate of 600 to 800 l/ha (converted) with the addition of 0.2% of wetting agent onto the green parts of the plants. After the test plants have been left to stand in the greenhouse under optimal growth conditions for about 3 weeks, the action of the preparations is assessed visually in comparison to untreated controls (herbicidal action in percent (%): 100% activity=the plants have died, 0% activity=like control plants).

Experiment [7] relates to Lolium multiflorum. Description: Post-emergence herbicidal effect. The note with it: visual assessment after about 3 weeks. The procedure:
as §2

The test system of experiment [8] is Alopecurus myosuroides. In words: Post-emergence herbicidal effect. The following applies: 80 g/ha, visual assessment after about 3 weeks. The procedure:
as §2

The test system of experiment [9] is Setaria viridis. In words: Post-emergence herbicidal effect. The following applies: visual assessment after about 3 weeks. The procedure:
as §2

The test system of experiment [10] is Avena fatua. Description: Post-emergence herbicidal effect. The note with it: visual assessment after about 3 weeks. As to the method:
as §2

On to `CC#Cc1cc(C)c(C2=C(OC(=O)OCC)C3(CCC(COC)CC3)NC2=O)c(CC)c1` (centres unmarked) [Ia-17], for which the “Comparison data for pre-emergence effectiveness CYPES” value with Cyperus esculentus (20 g a.i./ha) was 100%. Besides, the “Comparison data for pre-emergence effectiveness SETVI” value with Setaria viridis [1] (20 g a.i./ha) is listed as 100%. Also, the “Comparison data for pre-emergence effectiveness AVEFA” value in the experiment on Avena fatua [2] (20 g a.i./ha) is reported as 60%.
Regarding `CC#Cc1cc(C)c(C2=C(OC(=O)OCC)C3(CCC(OCCOC)CC3)NC2=O)c(CC)c1` (centres unmarked) [Ia-14], the “Pre-emergence effectiveness ECHCG” value in the experiment on Echinochloa crus-galli [3] (80 g/ha) and in the experiment with Echinochloa crus-galli [3] (320 g/ha) was 100% in each case. In addition, the “Pre-emergence effectiveness LOLMU” value in the experiment on Lolium multiflorum [4] (80 g/ha) is recorded as 90%; in the experiment with Lolium multiflorum [4] (320 g/ha), 100%. Further, the “Pre-emergence effectiveness ALOMY” value is listed as 80% in the experiment with Alopecurus myosuroides [5] (80 g/ha) and 100% in the experiment with Alopecurus myosuroides [5] (320 g/ha). Further, in the experiment on Cyperus esculentus, the “Pre-emergence effectiveness CYPES” value came to 100%. The “Pre-emergence effectiveness SETVI” value in the experiment with Setaria viridis [1] (80 g/ha) and in the experiment on Setaria viridis [1] (320 g/ha) was 100% throughout. The “Pre-emergence effectiveness AVEFA” value in the experiment on Avena fatua [2] (80 g/ha) and in the experiment on Avena fatua [2] (320 g/ha) was 80% throughout.
With `CCc1cc(C#CC2CC2)cc(C)c1C1=C(OC(=O)C(C)C)C2(CCC(COC)C2)NC1=O` (mixture of isomers) [Example Ia-10], the “Post-emergence effectiveness ECHCG” value in the experiment on Echinochloa crus-galli [6] (20 g/ha) and in the experiment on Echinochloa crus-galli [6] (80 g/ha) was 90% each time. For the same compound, the “Post-emergence effectiveness LOLMU” value in the experiment on Lolium multiflorum [7] (20 g/ha) came to 80%; with Lolium multiflorum [7] (80 g/ha), 90%. Besides, in the experiment with Alopecurus myosuroides [8], the “Post-emergence effectiveness ALOMY” value was 80%. For the same compound, the “Post-emergence effectiveness SETVI” value in the experiment on Setaria viridis [9] (20 g/ha) and in the experiment with Setaria viridis [9] (80 g/ha) was 100% throughout. In addition, the “Pre-emergence effectiveness ECHCG” value in the experiment on Echinochloa crus-galli [3] (80 g/ha) and with Echinochloa crus-galli [3] (320 g/ha) was 100% throughout. In addition, the “Pre-emergence effectiveness LOLMU” value with Lolium multiflorum [4] (80 g/ha) was 80%; in the experiment with Lolium multiflorum [4] (320 g/ha), 100%. In addition, the “Pre-emergence effectiveness ALOMY” value in the experiment on Alopecurus myosuroides [5] (80 g/ha) was 90%; with Alopecurus myosuroides [5] (320 g/ha) it was 100%. In addition, the “Pre-emergence effectiveness CYPES” value in the experiment with Cyperus esculentus was found to be 80%. Besides, the “Pre-emergence effectiveness SETVI” value in the experiment on Setaria viridis [1] (80 g/ha) amounted to 90%; in the experiment on Setaria viridis [1] (320 g/ha), 100%.
On to `CCc1cc(C#CC2CC2)cc(C)c1C1=C(O)C2(CCC(COC)C2)NC1=O` (centres unmarked) [Example I-12], for which the “Post-emergence effectiveness ECHCG” value in the experiment on Echinochloa crus-galli [6] (20 g/ha) and in the experiment with Echinochloa crus-galli [6] (80 g/ha) was 100% each time. In addition, in the experiment on Lolium multiflorum [7] (80 g/ha), the “Post-emergence effectiveness LOLMU” value is on record as 90%. Also, the “Post-emergence effectiveness ALOMY” value in the experiment on Alopecurus myosuroides [8] worked out at 90%. Also, the “Post-emergence effectiveness SETVI” value in the experiment with Setaria viridis [9] (20 g/ha) and in the experiment with Setaria viridis [9] (80 g/ha) was 100% each time. Besides, the “Post-emergence effectiveness AVEFA” value in the experiment on Avena fatua [10] (20 g/ha) and in the experiment on Avena fatua [10] (80 g/ha) was 80% throughout. The “Pre-emergence effectiveness ECHCG” value was determined as 90% with Echinochloa crus-galli [3] (80 g/ha) and 100% with Echinochloa crus-galli [3] (320 g/ha). Also, the “Pre-emergence effectiveness LOLMU” value in the experiment with Lolium multiflorum [4] (80 g/ha) and in the experiment with Lolium multiflorum [4] (320 g/ha) was 100% each time. Further, the “Pre-emergence effectiveness ALOMY” value in the experiment on Alopecurus myosuroides [5] (320 g/ha) was 100%. Moreover, the “Pre-emergence effectiveness SETVI” value with Setaria viridis [1] (80 g/ha) is listed as 90%; with Setaria viridis [1] (320 g/ha), 100%. Besides, the results for the “Pre-emergence effectiveness AVEFA” value with Avena fatua [2] (80 g/ha) and in the experiment with Avena fatua [2] (320 g/ha) were 100% and 80%, respectively.
